± gives the standard deviation.
How the values were obtained:
[1] = test system: Toxoplasma gondii RH tachyzoites; experiment: % growth inhibition vs DMSO (48 h luciferase); higher = more inhibition; conditions: 10 µM
[2] = test system: Plasmodium falciparum 3D7; experiment: % inhibition of schizont-to-ring transition vs DMSO; higher = more inhibition
How it was run: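 Tightly synchronised P. falciparum schizonts (about 40–42 hours post-invasion, 1% parasitemia, 2.5% hematocrit, AlbuMAX-supplemented RPMI) were exposed to compound at 1, 3 or 10 µM, with vehicle and positive controls. Cells were glutaraldehyde-fixed, Triton-permeabilised, stained with Hoechst 33342 and counted by flow cytometry (at least 100,000 events). Schizont-to-ring transition inhibition is new ring formation relative to vehicle controls, averaged over three experiments.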

[3] = test system: Toxoplasma gondii RH tachyzoites; experiment: plaque count per well; higher = less inhibition; extreme values may be limits of the assay; conditions: 10 µM; 8-10 days
Method: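 T. gondii RH tachyzoites expressing firefly luciferase were grown in HFF monolayers for 48 h with compound. % growth inhibition at 10 µM and EC50 (2-fold dilutions from 10 µM) were read by luminescence relative to 1% DMSO; EC50 listed as 10 (not determined, <80% inhibition) is left out. Plaque assays: 50 tachyzoites per well with 10 µM compound for 8-10 days, giving plaque count and area by crystal violet/ImageJ. Egress: median time to egress after 1 µM A23187 ionophore following 24 h of 10 µM compound (DMSO ~1.8 min; >10 = no egress within 10 min).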

[4] = test system: Plasmodium falciparum 3D7; experiment: EC50 growth inhibition (60 h, SYBR Green); conditions: stage: ring-stage start
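For % growth inhibition vs DMSO (48 h luciferase) in this document: tested in triplicate wells of 96-well plates on confluent HFF monolayers, with 1% DMSO wells as negative control in four replicates.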

SMILES	% growth inhibition [1] [%]	% inhibition of schizont-to-ring transition ([2]; 1 µM) [%]	% inhibition of schizont-to-ring transition ([2]; 3 µM) [%]	% inhibition of schizont-to-ring transition ([2]; 10 µM) [%]	plaque count per well [3]	EC50 growth inhibition [4] [nM]
CC(C)CNC(=O)c1c(N)n(CCc2ccccc2F)c2nc3ccccc3nc12	< 0	< 0	< 0	15	28	–
COc1ccc(CCN2C(=O)c3[nH]nc(-c4cc(Cl)c(C)cc4O)c3C2c2ccccc2F)cc1 (stereo not given)	< 0	20	20.6	46.1	0	–
COc1ccc(C2N(C)c3ccccc3N2C)cc1	15.2 ± 13	< 0	< 0	11.8	28	–
CC(C)(C)c1ccc(C(=O)Nc2nc3ccccc3s2)cc1	12.1 ± 13	44.3	45.2	54.4	33	–
CC1CCN(Cc2c(O)ccc3cc(-c4nc5ccccc5s4)c(=O)oc23)CC1	18.7 ± 17	6.51	20.3	38.2	0	–
CCOc1ccccc1NC(=O)CN1CCN(C(=O)c2ccco2)CC1	< 0	43.4	49.8	60	35	–
Cc1ccc(N2C3c4ccccc4N(S(=O)(=O)c4ccc(C)cc4)C2c2ccccc2N3S(=O)(=O)c2ccc(C)cc2)cc1	19.1 ± 3	< 0	5.25	18.3	0	–
CCN(CC)S(=O)(=O)c1ccc(-c2csc(Nc3ccc(C)c(C)c3)n2)cc1	71.8 ± 4.9	5.05	6.93	26.5	26	–
O=C(NC1CCN(Cc2ccccc2)CC1)c1cc2nc(-c3ccc(Cl)s3)cc(C(F)(F)F)n2n1	< 0	13.4	13.8	27.3	22	–
Nc1ccn([C@@H]2O[C@H](CO)[C@@H](O)[C@H]2O)c(=O)n1	< 0	35.8	40.5	42.6	29	–
CCOC(=O)C1=C(C)N=c2sc(=Cc3ccccc3O)c(=O)n2C1c1ccc(OC)c2ccccc12 (stereo not given)	4.31 ± 0.81	13.3	53.1	60.5	18	–
COc1ccc(CCNC(=O)c2cc(S(=O)(=O)N3CC(C)CC(C)C3)ccc2Sc2ccc(F)cc2)cc1OC (stereo not given)	11.7 ± 10	11.3	12.5	22.9	28	–
COc1ccc(C2C(C(=O)Nc3cccc(OC)c3)c3ccccc3C(=O)N2C2CCCCC2)cc1 (stereo not given)	13.5 ± 15	12.8	71.3	76.4	0	–
CCCCCCc1cc2cc(-c3nc4ccccc4[nH]3)c(=Nc3ccccc3C)oc2cc1O	< 0	9.35	11.5	23.5	3	–
COc1ccc(C)c2sc(N(Cc3cccnc3)C(=O)c3ccc(C#N)cc3)nc12	< 0	21.7	24.1	58.5	23	–
CCOC(=O)c1ccc2nc(-c3ccccc3)cc(O)c2c1	72.2 ± 6	20.2	29.4	44.6	–	195
O=C(CCl)NCCOc1ccc(Cl)cc1Cl	66.2 ± 5.8	12.1	24.7	43.1	–	717
CN(C)c1ccc(-c2nc3cc(N)ccc3[nH]2)cc1	40.4 ± 8.4	5.79	18.4	66.7	–	3020
Oc1c(CN2CCN(c3ccccc3F)CC2)cc(Br)c2cccnc12	74.2 ± 13	7.79	26.8	49.7	–	7420
COc1ccc(C(=O)C2CC2c2ccc(Cl)cc2)cc1 (stereo not given)	22 ± 8.6	8.22	39.3	58.3	–	2700
COc1ccc(-c2cc(=O)oc3c4c(ccc23)OCN(Cc2ccc(F)cc2)C4)cc1	63.1 ± 3.1	< 0	10	48.3	–	4110
Fc1ccc2[nH]c3c(NCCCN4CCOCC4)ncnc3c2c1	34.5 ± 17	3.9	32.7	53.9	–	466
O=C(NC1CCCC1)c1ccc(N2CCC(NCc3cccc(C(F)(F)F)c3)CC2)cc1	74.7 ± 1.2	0.815	7.92	41.6	–	2010
Cc1cc(NCCN2CCCCC2)c2ccc3ccccc3c2n1	78.3 ± 6.7	46.4	52.1	69.7	–	123
COc1cc(SC)ccc1C(=O)N1CCCC(C)C1 (stereo not given)	33.1 ± 4.9	0.295	< 0	12.1	–	3240
CCOc1c(Br)cc(C2C(C(=O)OC)=CN(C)C=C2C(=O)OC)cc1OC	70.4 ± 17	49.6	75.9	79.6	–	480
Cc1cc(Nc2ccc3ccccc3c2)n2ncnc2n1	24.1 ± 23	57.1	61.7	61.5	–	53.7
O=C1CC(O)(C(F)(F)C(F)(F)F)Oc2ccccc21 (stereo not given)	65.3 ± 2.5	5.46	15.3	47.7	–	3000
CCOc1ccc(Nc2ccnc3cc(Cl)ccc23)cc1	64.1 ± 7.2	23.3	27.2	30	–	3740
Cc1ccc(Cn2c(N3CCC(C(=O)NCc4cccs4)CC3)nc3ccccc32)cc1	66.1 ± 3.6	47.3	68	69.8	–	744

Reference: the supplement of paper PMC5770543
